Laboratory results from US12421240B2, “Hydropyrazino[1,2-d][1,4]diazepine compounds for the treatment of autoimmune disease” (Hoffmann-La Roche Inc., priority 2019, dated 2025).

Target: T1, hERG channel (Homo sapiens, UniProt Q12809)
T1 construct: expressed in transfected cells
Assay: hERG channel inhibition assay (patch-clamp, CHO hERG cells)
Type: cell-based
Details: whole-cell patch-clamp; for IC20: human, CHO cells stably expressing hERG
Method: hERG Channel Inhibition Assay
The hERG K^+ channels were cloned in humans and stably expressed in a CHO (Chinese hamster ovary) cell line. CHOhERG cells were used for patch-clamp (voltage-clamp, whole-cell) experiments. Cells were stimulated by a voltage pattern to activate hERG channels and conduct IKhERG currents (rapid delayed outward rectifier potassium current of the hERG channel). After the cells were stabilized for a few minutes, the amplitude and kinetics of IKhERG were recorded at a stimulation frequency of 0.1 Hz (6 bpm). Thereafter, the test compound was added to the preparation at increasing concentrations. For each concentration, an attempt was made to reach a steady-state effect, usually, this was achieved within 3-10 min at which time the next highest concentration was applied. The amplitude and kinetics of IKhERG are recorded in each concentration of the drug which were compared to the control values (taken as 100%). (references: Redfern W S, Carlsson L, Davis A S, Lynch W G, MacKenzie I, Palethorpe S, Siegl P K, Strang I, Sullivan A T, Wallis R, Camm A J, Hammond T G. 2003; Relationships between preclinical cardiac electrophysiology, clinical QT interval prolongation and torsade de pointes for a broad range of drugs: evidence for a provisional safety margin in drug development. Cardiovasc. Res. 58:32-45, Sanguinetti M C, Tristani-Firouzi M. 2006; hERG potassium channels and cardiac arrhythmia. Nature 440:463-469, Webster R, Leishman D, Walker D. 2002; Towards a drug concentration effect relationship for QT prolongation and torsades de pointes. Curr. Opin. Drug Discov. Devel. 5:116-26).

T1 sequence (Q12809 whole entry): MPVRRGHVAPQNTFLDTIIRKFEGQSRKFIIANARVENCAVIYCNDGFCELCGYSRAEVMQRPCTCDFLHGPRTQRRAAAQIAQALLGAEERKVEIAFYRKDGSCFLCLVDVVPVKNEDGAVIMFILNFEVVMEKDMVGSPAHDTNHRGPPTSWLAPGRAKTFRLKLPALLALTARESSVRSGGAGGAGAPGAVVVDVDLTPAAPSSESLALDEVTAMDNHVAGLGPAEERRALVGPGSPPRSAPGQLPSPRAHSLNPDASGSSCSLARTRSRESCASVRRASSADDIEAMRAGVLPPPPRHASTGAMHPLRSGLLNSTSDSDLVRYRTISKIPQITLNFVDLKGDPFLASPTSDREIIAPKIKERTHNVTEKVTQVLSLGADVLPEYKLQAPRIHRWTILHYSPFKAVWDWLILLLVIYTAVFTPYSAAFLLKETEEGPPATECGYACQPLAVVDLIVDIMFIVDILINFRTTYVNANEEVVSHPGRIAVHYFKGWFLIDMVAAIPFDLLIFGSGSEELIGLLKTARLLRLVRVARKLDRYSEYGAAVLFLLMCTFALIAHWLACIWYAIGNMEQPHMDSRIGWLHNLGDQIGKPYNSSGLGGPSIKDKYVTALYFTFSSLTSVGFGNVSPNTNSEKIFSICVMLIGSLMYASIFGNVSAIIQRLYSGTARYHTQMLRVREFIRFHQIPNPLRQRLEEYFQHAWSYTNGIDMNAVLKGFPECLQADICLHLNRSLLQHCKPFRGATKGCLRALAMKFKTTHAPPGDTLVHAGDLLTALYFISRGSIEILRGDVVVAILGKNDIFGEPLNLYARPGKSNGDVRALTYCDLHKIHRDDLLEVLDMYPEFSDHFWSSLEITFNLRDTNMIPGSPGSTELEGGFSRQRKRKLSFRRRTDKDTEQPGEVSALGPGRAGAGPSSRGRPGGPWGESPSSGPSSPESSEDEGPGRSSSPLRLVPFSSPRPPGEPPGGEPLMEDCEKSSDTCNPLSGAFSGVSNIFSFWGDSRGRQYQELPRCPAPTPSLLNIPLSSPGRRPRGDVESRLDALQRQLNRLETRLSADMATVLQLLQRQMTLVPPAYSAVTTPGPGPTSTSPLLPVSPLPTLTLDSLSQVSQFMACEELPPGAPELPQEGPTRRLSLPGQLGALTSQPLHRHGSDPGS

Row | SMILES | IC20 [µM] | IC50 [µM]
1 | C[C@@H]1CN(c2ccc(C#N)c3ncccc23)C[C@@H]2CCN(Cc3cnc4c(c3)CNCC4)CCN21 [Example 10, 5-[(4R,10aS)-4-methyl-8-(5,6,7,8-tetrahydro-1,6-naphthyridin-3-ylmethyl)-1,3,4,6,7,9,10,10a-octahydropyrazino[1,2-d][1,4]diazepin-2-yl]quinoline-8-carbonitrile] | > 10 | > 20
2 | C[C@@H]1CN(c2ccc(C#N)c3ncccc23)C[C@@H]2CCN(Cc3cnc(N4CCNCC4)cn3)CCN21 [Example 15, 5-[(4R,10aS)-4-methyl-8-[(5-piperazin-1-ylpyrazin-2-yl)methyl]-1,3,4,6,7,9,10,10a-octahydropyrazino[1,2-d][1,4]diazepin-2-yl]quinoline-8-carbonitrile] | > 10 | > 20
3 | C[C@@H]1CN(c2ccc(C#N)c3ncccc23)C[C@@H]2CCN(c3cc4c(cn3)CNCC4)CCN21 [Example 7, 5-[(4R,10aS)-4-methyl-8-(5,6,7,8-tetrahydro-2,7-naphthyridin-3-yl)-1,3,4,6,7,9,10,10a-octahydropyrazino[1,2-d][1,4]diazepin-2-yl]quinoline-8-carbonitrile] | > 10 | > 20
